Measurements taken from patent publication US20230052298A1, “LACTIC ACID BACTERIUM FERMENTATION PROMOTER” (MEIJI CO., LTD., priority 2019, published 2023).

How the values were obtained:
L. salivarius = assay: Test Example 5: organic acid concentrations after fermentation; format: cell-based, Lactobacillus salivarius; conditions: 1 mM added
Description: The measurement of the organic acid concentration after the completion of fermentation was carried out as follows. An aliquot of 0.4 g of the fermentate obtained (fermented milk) was diluted by 2-fold with pure water, 20 μL of Carrez's Reagent I (53.5% (w/v) zinc sulfate) was added thereto and the mixture was vortexed, and 20 μl of Carrez's Reagent II (17.2% (w/v) potassium ferrocyanide) was added thereto and the mixture was vortexed. The resulting mixture was centrifuged at 4° C., 20620 g for 10 minutes, and the supernatant was filtered through a 0.22 μm filter and the filtrate was analyzed under the conditions shown in Table 2. [table] The measurement of the organic acid concentration after the completion of fermentation by L. rhamnosus and L. salivarius in Test Example 3 or 4 was carried out in the same manner as in Test Example 2-1. The addition of malic acid or fumaric acid promoted production of succinic acid by L. rhamnosus and L. salivarius.

[1] = tested on: Lactobacillus delbrueckii subsp. bulgaricus OLL1073R-1; assay: Test Example 9: EPS production during culture; format: cell-based; conditions: 4 mM added; strain OLL1073R-1; 37° C.; compared with the control
Description: Frozen bacteria of Lactobacillus delbrueckii subsp. bulgaricus OLL1073R-1 were prepared.
Raw material components other than anhydrous crystalline glucose were dissolved in Elix water, the mixture was adjusted to pH 6.65 using sodium hydroxide, and then diluted in measuring flask to 70 wt % of the charge amount of the medium. Anhydrous crystalline glucose was dissolved in Elix water, and diluted in measuring flask to 30 wt % of the charge amount of the medium.
In addition, the raw material components other than sugar solution and sugar were sterilized separately by heating at 110° C. for 1 minute in an autoclave and then aseptically mixed and used.
An aliquot of 1.5 kg of the above medium was adjusted to pH 5.4 using 6 N potassium carbonate, to the medium, 0.30 mass % of frozen bacteria (with respect to the amount of medium) was inoculated, and the bacteria were cultured at 37° C. while top ventilating with nitrogen at a flow rate of 0.5 L/min and stirring under the condition of 150 rpm.
The EPS concentration was measured under the following conditions. […]
The supernatant was removed by centrifuging (4° C., 13400 g, 20 min), and 20 ml of cooled 66% ethanol was added thereto to suspend the precipitate. […] The EPS concentration of the analysis sample was measured by the phenol-sulfuric acid method.

[2] = tested on: L. delbrueckii subsp. bulgaricus 2038; assay: Test Example 2-1: fermentation time versus concentration of malic acid or fumaric acid; format: cell-based, Lactobacillus delbrueckii subsp. bulgaricus; conditions: L. bulgaricus 2038; from Tables 3 and 4
Description: The fermentation was carried out using a fermentation medium (raw material milk). The fermentation medium was prepared by adding formic acid to the 10% reduced skim milk medium so as to give a final concentration of 1 mM, and then sterilizing the mixture at 95° C., and was used. […] In the above fermentation medium, a lactic acid bacterial starter of […] was inoculated at 0.5% (with respect to the amount of fermentation medium), statically cultured at 40° C., and fermented. The fermentation time was the time required for the medium to reach pH 4.6.

[3] = tested on: Lactobacillus delbrueckii subsp. bulgaricus; assay: Test Example 8: organic acid concentration in fermentate at completion of fermentation, inosinic acid medium; format: cell-based; conditions: 1 mM additive, 1 mM inosinic acid medium
Description: The strains shown in Tables 13 and 14 were precultured in the preculture medium and then used. The activation medium used was a 10 mass % reduced skim milk medium containing 0.1 mass % yeast extract, sterilized at 121° C. for 7 minutes. Here, the 10 mass % reduced skim milk medium is a 10 mass % aqueous solution of skim milk powder (fat 1 mass %, protein 34 mass %, lactose 54 mass %, ash 8 mass %, non-fat milk solid 96 mass %) (manufactured by Meiji Co., Ltd.) (in the above medium, lactose 5.4 mass %, non-fat milk solid 9.6 mass %). Frozen bacteria were added to the above-mentioned activation medium in an amount of 0.1 mass % (with respect to the amount of the activation medium) and statically cultured at 37° C. for 16 hours to obtain an activation solution. An aliquot of 0.1 mass % of the activation solution obtained (with respect to the amount of activation medium) was added to another activation medium, and the mixture was allowed to stand at 37° C. for 16 hours to obtain a lactic acid bacterial starter. Then, fermentation was carried out using a fermentation medium as raw material milk. The fermentation medium was prepared by adding inosinic acid to the 10 mass % reduced skim milk medium so as to give a final concentration of 1 mM, and then sterilizing the mixture at 95° C., and was used. […] The pH of the fermentation medium was about 6.4. The lactic acid bacterial starter of each strain obtained above was inoculated into the fermentation medium in an amount of 2.5 mass % (with respect to the amount of the fermentation medium), statically cultured at 40° C., and fermented. The fermentation time was the time required for the medium to reach pH 4.6. The pH value was measured using a commercially available pH meter.

[4] = No addition of L. delbrueckii subsp. bulgaricus

SMILES | Concentration of fumaric acid (L. salivarius) [mM] | Concentration of malic acid (L. salivarius) [mM] | Concentration of succinic acid (L. salivarius) [mM] | EPS concentration with the culturing time (FIG. 1) [1] | Concentrations at which a fermentation promoting effect was confirmed [2] [mM] | Concentration of fumaric acid [3, 4] [mM] | Concentration of malic acid [3, 4] [mM] | Concentration of succinic acid [3, 4] [mM] | Concentration of succinic acid in fermentate at completion of fermentation (pH 4.6) ([3]; strain 0LL1171) [mM] | Concentration of succinic acid in fermentate at completion of fermentation (pH 4.6) ([3]; strain 2038) [mM] | Concentration of succinic acid in fermentate at completion of fermentation (pH 4.6) ([3]; strain OLL1073R-1) [mM] | Concentration of succinic acid in fermentate at completion of fermentation (pH 4.6) ([3]; strain OLL1247) [mM] | Concentration of succinic acid in fermentate at completion of fermentation (pH 4.6) ([3]; strain OLL1255) [mM] | Concentration of succinic acid in fermentate at completion of fermentation (pH 4.6) ([3]; strain OLL205013) [mM] | Concentration of succinic acid in fermentate at completion of fermentation (pH 4.6) ([3]; strain P1902901) [mM]
O=C(O)/C=C/C(=O)O [Fumaric acid, fumaric acid] | 0.62 | 0.51 | 0.29 | higher concentration compared with the control | 0.01 to 2.5 | 1.12 | 0.13 | 0.06 | 1.43 | 1.43 | 1.52 | 1.57 | 1.49 | 1.60 | 1.40
O=C(O)CC(O)C(=O)O (centres unmarked) [Malic acid, malic acid] | 0.35 | 0.75 | 0.28 | higher concentration compared with the control | 0.01 to 50 |  | 1.06 | 0.06 | 1.40 | 1.40 | 1.50 | 1.53 | 1.46 | 1.53 | 1.38
